Results as given in patent US20250186408A1, “TREATMENT OF PHARMACORESISTANT EPILEPSY” (Katholieke Universiteit Leuven, priority 2021, published 2025).
Like-named read-outs stand apart in the source and are kept apart here.

Legend:
47 common off-targets = experiment: Safety47 panel in vitro pharmacological profiling (overall); settings: for potential off-targets (number): 78 functional assays, 47 off-targets, up to 10 μM
Protocol: The following assays were performed: (1) GPCR cAMP modulation, (2) calcium mobilization, (3) nuclear hormone receptor assays, (4) KINOMEscan binding assays, (5) ion channel assays, (6) transporter assays and (7) enzymatic assays. Compounds were tested in a range of 10 concentrations, following a 3-fold serial dilution, starting from 10 μM. The assays were performed utilizing the PathHunter enzyme fragment complementation (EFC) technology, FLIPR®-based cellular screening assays, and KINOMEscan kinase binding assays.

CHRM3 = CHRM3 (Homo sapiens, UniProt P20309); experiment: Calcium Flux CHRM3 Antagonist; settings: for Emax: read-out: Max response
Protocol: (§1) In vitro pharmacological profiling of compounds was done against 78 functional assays for 47 common off-targets (30) by Eurofins DiscoverX Corporation (Fremont, CA, USA) using their SAFETYscan E/IC50 ELECT service (Cat Ref 87-1003DR, Safety47 Panel Dose Response). […] Compounds were tested in a range of 10 concentrations, following a 3-fold serial dilution, starting from 10 μM. The assays were performed utilizing the PathHunter enzyme fragment complementation (EFC) technology, FLIPR®-based cellular screening assays, and KINOMEscan kinase binding assays.
(§2) Prior to testing, cells (10,000 cells/well) were expanded from freezer stocks and seeded into a total volume of 50 μL into black walled, clear-bottom, Poly-D-lysine coated 384-well microplates and incubated at 37° C. […] Assays were performed in 1× dye loading buffer consisting of 1× Dye (DiscoverX, Calcium No Wash^PLUS kit, Catalog No. 90-0091), 1× Additive A and 2.5 mM Probenecid in HBSS/20 mM HEPES. Probenecid was prepared fresh. Prior to testing, media was aspirated from cells and replaced with 25 μL dye loading buffer. Cells were incubated for 45 min at 37° C. and then 20 min at RT. For agonist determination, 25 μL of 2× compound in HBSS/20 mM HEPES was added using a FLIPR Tetra (MDS). For antagonist determination, cells were pre-incubated with sample followed by agonist challenge at the EC80 concentration. 25 μL of 2× sample was added and cells were incubated for 30 min at RT in the dark to equilibrate plate temperature. After incubation, antagonist determination was initiated by addition of 25 μL of 1× compound with 3×EC80 agonist using FLIPR. For both agonist and antagonist formats, activity was measure on a FLIPR Tetra (MDS). Calcium mobilization was monitored for 2 min with a 5 sec baseline read.
(§3) FLIPR read—Area under the curve, was calculated for the entire 2 min read. Compound activity was analysed using CBIS data analysis suite (ChemInnovation, CA).

male NMRI mice = experiment: Mouse 6-Hz (44 mA) psychomotor seizure model; format: in vivo; settings: 30 min before stimulation; for dose-response relationship (in words): i.p.
Protocol: The antiseizure activity of compounds was investigated in the mouse 6-Hz (44 mA) psychomotor seizure model as described before (27). […] Seizure behaviour was video recorded and seizure durations were determined by blinded video analysis by experienced researchers, familiar with the different seizure characteristics. Data are expressed as mean±SD.
The 6-Hz 44 mA model is an acute model of pharmacoresistant focal impaired awareness seizures, previously referred to as complex partial or psychomotor seizures that are induced by a low frequency, long duration corneal electrical stimulation (6 Hz, 0.2 ms rectangular pulse width, 3 s duration, 44 mA). Seizures are typically characterized by a clonic phase and stereotypical automatic behaviours like stun, forelimb clonus, Straub tail and vibrissae twitching.

Plasma protein binding = format: in vitro ADME; settings: pH 7.4, human plasma
From the text: In vitro ADME profiling of compounds was done by Eurofins Panlabs Inc (St Charles, MO, USA) using their ADME-Tox service (Cat Ref P375, Tier 1 ADME Panel). […] (28). The atom-based log P calculation method, called OsirisP, uses as an increment system and adds contributions of every atom based on its atom type. The prediction engine distinguishes a total of 368 atom types and was optimized using a training set of more than 5000 molecules with experimentally determined log P values. The free prediction engine has proven to outperform many alternative calculation methods (29).
Human plasma, used as the protein containing matrix, was spiked with the test compound at 10 μM (final solvent concentration of 1% DMSO). The assay was performed in a 96-well format in a dialysis block (Teflon) with the dialysate compartment containing PBS (pH 7.4) and the sample side containing an equal volume of the spiked protein matrix. The plate was incubated at 37° C. for 4 h. After incubation, samples were taken from both compartments, diluted with the phosphate buffer, followed by the addition of acetonitrile and centrifugation. The supernatants were then used for HPLC-MS/MS analysis. Acebutolol, quinidine and warfarin were tested in each assay. The percentage bound to proteins and the recovery were calculated as follows: […]

HRH1 = HRH1 (Homo sapiens, UniProt P35367); experiment: Calcium Flux HRH1 Antagonist; format: cell-based; settings: for Emax: read-out: Max response
HRH1, sequence (P35367 whole entry): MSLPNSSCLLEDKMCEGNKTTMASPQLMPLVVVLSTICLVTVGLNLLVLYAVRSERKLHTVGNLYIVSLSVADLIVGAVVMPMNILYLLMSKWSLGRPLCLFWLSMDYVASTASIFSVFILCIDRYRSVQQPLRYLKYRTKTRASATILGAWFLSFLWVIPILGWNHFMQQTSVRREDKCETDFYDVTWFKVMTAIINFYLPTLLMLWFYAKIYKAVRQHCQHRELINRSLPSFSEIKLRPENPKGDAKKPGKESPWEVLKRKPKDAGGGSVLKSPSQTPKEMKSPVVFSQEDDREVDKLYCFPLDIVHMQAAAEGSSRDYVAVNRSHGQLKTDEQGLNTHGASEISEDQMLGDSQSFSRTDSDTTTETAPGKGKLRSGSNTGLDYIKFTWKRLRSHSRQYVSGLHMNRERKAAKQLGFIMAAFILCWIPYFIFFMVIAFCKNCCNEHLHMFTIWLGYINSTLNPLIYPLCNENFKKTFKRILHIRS
Protocol: (≤0.2% DMSO concentration). Assays were performed in 1× dye loading buffer consisting of 1× Dye (DiscoverX, Calcium No Wash^PLUS kit, Catalog No. 90-0091), 1× Additive A and 2.5 mM Probenecid in HBSS/20 mM HEPES. Probenecid was prepared fresh. Prior to testing, media was aspirated from cells and replaced with 25 μL dye loading buffer. Cells were incubated for 45 min at 37° C. and then 20 min at RT. For agonist determination, 25 μL of 2× compound in HBSS/20 mM HEPES was added using a FLIPR Tetra (MDS). […] 25 μL of 2× sample was added and cells were incubated for 30 min at RT in the dark to equilibrate plate temperature. After incubation, antagonist determination was initiated by addition of 25 μL of 1× compound with 3×EC80 agonist using FLIPR. For both agonist and antagonist formats, activity was measure on a FLIPR Tetra (MDS). Calcium mobilization was monitored for 2 min with a 5 sec baseline read.
FLIPR read—Area under the curve, was calculated for the entire 2 min read.

in vivo = settings: male, NMRI, mouse, ip, 300 mg/kg
Protocol: After the treatment period, blood samples were drawn from the tail veins, collected in Greiner MiniCollect K2EDTA tubes, and centrifuged twice for 5 min at 15,000 g to obtain plasma samples. Three volumes of acetonitrile were added to one volume of plasma to precipitate out the proteins. The samples were vortexed for 20 s and placed on ice. Immediately after, they were centrifuged at 5,000 g for 10 min and again at 10,000 g for 2 min. The resulting supernatants were transferred to Eppendorf tubes and centrifuged for 2 min at 10,000 g. Finally, the supernatants were collected for analysis by LC-MS/MS to determine the targeted compound concentration. Percentage recovery was determined as follows: known concentrations of the compound were spiked into the blank plasma and acetonitrile was added (3:1 ratio) to precipitate out the proteins. Samples were vortexed for 20 s and placed on ice. The resulting supernatants were isolated via centrifugation as described above. The targeted compounds were identified using LC-MS/MS to detect their characteristic ions. Plasma concentrations at each point were plotted as a function of time.
Brain samples were collected at the same time points as described for blood samples. Male NMRI mice were overdosed with dolethal via i.p. administration. Mice were perfused with 0.9% saline and brains were collected in Eppendorf tubes. Brains were weighed, whereafter 400 μL of acetonitrile was added to the samples. […] Homogenized samples were centrifuged at 5,000 g for 10 min and again at 10,000 g for 2 min. The resulting supernatants were transferred to Eppendorf tubes and centrifuged for 2 min at 10,000 g. Finally, the supernatants were collected for analysis by LC-MS/MS to determine the targeted compound concentration in the brain tissue.
The compound concentrations in mouse plasma and brain were determined by LC-MS/MS.

NAV1.5 = NAV1.5 (Homo sapiens, UniProt Q14524); experiment: Ion Channel NAV1.5 Blocker; format: cell-based; settings: for Emax at 30 min: Ion Channel NAV1.5 Blocker, read-out: Max response
NAV1.5, sequence (Q14524 whole entry): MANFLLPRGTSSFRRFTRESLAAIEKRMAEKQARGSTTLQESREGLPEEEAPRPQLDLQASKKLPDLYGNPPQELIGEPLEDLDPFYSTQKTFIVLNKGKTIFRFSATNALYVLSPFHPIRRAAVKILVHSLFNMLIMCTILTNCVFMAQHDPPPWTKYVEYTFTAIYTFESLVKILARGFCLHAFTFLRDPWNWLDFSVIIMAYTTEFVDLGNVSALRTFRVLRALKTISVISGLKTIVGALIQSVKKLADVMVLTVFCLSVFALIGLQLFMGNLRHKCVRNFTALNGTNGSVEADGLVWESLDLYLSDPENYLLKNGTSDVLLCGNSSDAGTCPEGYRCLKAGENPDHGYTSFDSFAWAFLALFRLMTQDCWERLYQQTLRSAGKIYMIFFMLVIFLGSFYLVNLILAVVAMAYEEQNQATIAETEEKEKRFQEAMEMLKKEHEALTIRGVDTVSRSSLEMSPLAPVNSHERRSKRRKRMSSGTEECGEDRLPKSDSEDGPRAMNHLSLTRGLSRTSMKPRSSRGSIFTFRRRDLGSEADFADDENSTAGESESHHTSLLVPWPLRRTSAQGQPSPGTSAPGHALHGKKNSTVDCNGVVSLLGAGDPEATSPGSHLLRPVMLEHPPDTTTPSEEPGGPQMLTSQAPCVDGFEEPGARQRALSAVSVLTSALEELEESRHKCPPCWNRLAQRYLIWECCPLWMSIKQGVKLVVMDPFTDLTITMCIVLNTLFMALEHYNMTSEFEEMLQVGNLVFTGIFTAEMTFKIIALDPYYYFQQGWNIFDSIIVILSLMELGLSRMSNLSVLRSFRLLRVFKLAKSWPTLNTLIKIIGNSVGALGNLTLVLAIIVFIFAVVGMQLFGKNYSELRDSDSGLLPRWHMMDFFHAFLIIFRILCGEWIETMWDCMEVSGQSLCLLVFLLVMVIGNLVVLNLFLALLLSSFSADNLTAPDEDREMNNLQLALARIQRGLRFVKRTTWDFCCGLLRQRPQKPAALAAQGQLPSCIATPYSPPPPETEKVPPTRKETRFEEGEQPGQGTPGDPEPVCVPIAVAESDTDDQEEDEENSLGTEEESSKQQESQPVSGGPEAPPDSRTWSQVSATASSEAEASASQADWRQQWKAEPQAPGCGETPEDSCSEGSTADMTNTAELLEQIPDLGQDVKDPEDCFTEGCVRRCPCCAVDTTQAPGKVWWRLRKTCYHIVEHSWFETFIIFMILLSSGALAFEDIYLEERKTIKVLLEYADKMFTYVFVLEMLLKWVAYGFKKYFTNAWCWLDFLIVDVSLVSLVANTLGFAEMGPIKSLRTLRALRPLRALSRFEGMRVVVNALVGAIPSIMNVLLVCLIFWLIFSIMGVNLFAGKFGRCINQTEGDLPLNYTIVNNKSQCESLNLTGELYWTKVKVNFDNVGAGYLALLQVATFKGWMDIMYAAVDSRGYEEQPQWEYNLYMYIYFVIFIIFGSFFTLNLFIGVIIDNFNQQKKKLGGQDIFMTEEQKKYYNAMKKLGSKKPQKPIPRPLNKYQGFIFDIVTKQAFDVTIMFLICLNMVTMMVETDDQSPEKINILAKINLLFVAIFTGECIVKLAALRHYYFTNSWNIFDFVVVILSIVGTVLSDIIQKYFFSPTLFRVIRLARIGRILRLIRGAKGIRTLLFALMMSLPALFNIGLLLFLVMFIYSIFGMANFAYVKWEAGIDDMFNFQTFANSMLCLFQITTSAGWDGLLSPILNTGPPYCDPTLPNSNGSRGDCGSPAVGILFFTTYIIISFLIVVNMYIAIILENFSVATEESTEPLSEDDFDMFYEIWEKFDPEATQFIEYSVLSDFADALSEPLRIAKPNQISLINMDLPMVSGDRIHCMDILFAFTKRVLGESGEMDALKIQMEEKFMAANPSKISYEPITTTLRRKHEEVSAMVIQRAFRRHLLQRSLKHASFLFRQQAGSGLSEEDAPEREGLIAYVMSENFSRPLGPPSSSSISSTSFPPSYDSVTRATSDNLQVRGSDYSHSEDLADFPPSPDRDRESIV

HTR2B = HTR2B (Homo sapiens, UniProt P41595); experiment: Calcium Flux HTR2B Antagonist; settings: for Emax: read-out: Max response
HTR2B, sequence (P41595 whole entry): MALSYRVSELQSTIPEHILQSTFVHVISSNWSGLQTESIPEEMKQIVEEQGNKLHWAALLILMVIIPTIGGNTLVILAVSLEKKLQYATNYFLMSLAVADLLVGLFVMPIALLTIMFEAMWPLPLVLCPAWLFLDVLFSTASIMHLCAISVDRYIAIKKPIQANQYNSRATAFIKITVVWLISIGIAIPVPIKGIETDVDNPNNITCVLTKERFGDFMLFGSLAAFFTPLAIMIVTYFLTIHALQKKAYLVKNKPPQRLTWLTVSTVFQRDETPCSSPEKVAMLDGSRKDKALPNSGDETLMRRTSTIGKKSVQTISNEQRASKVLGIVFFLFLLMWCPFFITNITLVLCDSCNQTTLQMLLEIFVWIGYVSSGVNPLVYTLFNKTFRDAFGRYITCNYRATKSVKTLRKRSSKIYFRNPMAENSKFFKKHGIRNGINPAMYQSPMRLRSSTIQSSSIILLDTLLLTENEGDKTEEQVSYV
Protocol: as §1, §2, §3

DAT = molecular target: T1, DAT (Homo sapiens, UniProt Q01959); experiment: Transporter DAT Blocker; format: cell-based; settings: for Emax: Transporter DAT Blocker, read-out: Max response
T1 construct: Eurofins DiscoverX Corporation 87-1003DR; host or cells: unnamed cell lines
T1 sequence (Q01959 whole entry): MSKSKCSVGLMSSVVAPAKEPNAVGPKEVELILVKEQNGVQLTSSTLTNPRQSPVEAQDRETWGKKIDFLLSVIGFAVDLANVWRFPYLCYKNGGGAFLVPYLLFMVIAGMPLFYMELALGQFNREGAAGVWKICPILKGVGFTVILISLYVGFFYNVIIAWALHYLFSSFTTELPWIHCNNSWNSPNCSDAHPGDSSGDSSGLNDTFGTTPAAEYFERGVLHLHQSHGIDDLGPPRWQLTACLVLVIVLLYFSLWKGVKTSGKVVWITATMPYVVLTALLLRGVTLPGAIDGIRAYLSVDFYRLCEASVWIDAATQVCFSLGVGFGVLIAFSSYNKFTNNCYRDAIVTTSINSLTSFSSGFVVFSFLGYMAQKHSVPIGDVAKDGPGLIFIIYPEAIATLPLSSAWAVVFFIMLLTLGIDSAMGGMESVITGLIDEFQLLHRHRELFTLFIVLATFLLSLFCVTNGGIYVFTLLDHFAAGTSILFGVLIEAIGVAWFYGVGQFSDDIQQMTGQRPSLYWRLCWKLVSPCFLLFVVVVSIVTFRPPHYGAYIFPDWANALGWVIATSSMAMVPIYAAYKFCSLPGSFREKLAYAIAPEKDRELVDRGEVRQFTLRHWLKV
Protocol: After cell plating and incubation, media was removed an 25 μL of 1× compound in 1×HBSS/0.1% BSA was added. Compounds were incubated with cells for 30 min at 37° C. After compound incubation, 25 μL of 1× dye loading buffer (1× dye, 1×HBSS/20 mM HEPES) was added to the wells. Cells were incubated for 30-60 min at 37° C. After incubation, microplates were transferred to a PerkinElmer Envision™ instrument for fluorescent signal detection. […] For blocker mode assays, percentage of inhibition was calculated using the following formula: […]

CNR1 = CNR1 (Homo sapiens, UniProt P21554); experiment: cAMP CNR1 Antagonist; settings: for Emax: read-out: Max response
CNR1, sequence (P21554 whole entry): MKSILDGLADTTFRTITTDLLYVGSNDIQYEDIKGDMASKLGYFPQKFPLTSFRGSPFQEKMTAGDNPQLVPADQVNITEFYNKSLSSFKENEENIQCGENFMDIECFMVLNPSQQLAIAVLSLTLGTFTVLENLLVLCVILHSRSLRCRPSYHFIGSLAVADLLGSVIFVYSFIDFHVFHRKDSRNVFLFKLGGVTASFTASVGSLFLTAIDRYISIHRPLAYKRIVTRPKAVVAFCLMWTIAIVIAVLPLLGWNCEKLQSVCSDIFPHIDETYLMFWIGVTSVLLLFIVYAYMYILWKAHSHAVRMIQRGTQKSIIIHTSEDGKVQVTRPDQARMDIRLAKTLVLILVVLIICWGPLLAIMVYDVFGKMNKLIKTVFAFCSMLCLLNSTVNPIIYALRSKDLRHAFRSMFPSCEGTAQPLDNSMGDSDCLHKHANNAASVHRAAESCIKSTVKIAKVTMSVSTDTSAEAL
Protocol: In vitro pharmacological profiling of compounds was done against 78 functional assays for 47 common off-targets (30) by Eurofins DiscoverX Corporation (Fremont, CA, USA) using their SAFETYscan E/IC50 ELECT service (Cat Ref 87-1003DR, Safety47 Panel Dose Response). […] Compounds were tested in a range of 10 concentrations, following a 3-fold serial dilution, starting from 10 μM.
cAMP Hunter cell lines were expanded from freezer stocks. Prior to testing, cells were seeded in a total volume of 20 μL into white walled 384-well microplates and incubated at 37° C. cAMP modulation was determined using the DiscoverX HitHunter cAMP XS+ assay. For Gs agonist determination, cells were incubated with sample to induce response. For Gi agonist determination, cells were incubated with sample in the presence of EC80 forskolin to induce response. For both conditions, media was aspirated from cells and replaced with 15 μL 2:1 HBSS/10 mM HEPES:cAMP XS+ Ab reagent. Intermediate dilution of sample stocks was performed to generate 4× sample in assay buffer (containing 4×EC80 forskolin in the case of antagonist determination). 5 μL of 4× sample was added to cells and incubated at 37° C. or room temperature (RT) for 30 or 60 min. Final assay vehicle concentration was 1%. For antagonist determination, cells were pre-incubated with sample followed by agonist challenge at the EC80 concentration. Media was aspirated from cells and replaced with 10 μL 1:1 HBSS/HEPES:cAMP XS+ Ab reagent. 5 μL of 4× compound was added to the cells and incubated at 37° C. or RT for 30 min. 5 μL of 4×EC80 agonist was added to the cells and incubated at 37° C. or RT for 30 or 60 min. For Gi coupled GPCRs, EC80 forskolin was included. […] Microplates were read following signal generation with a PerkinElmer Envision™ instrument for chemiluminescent signal detection. Compound activity was analyzed using CBIS data analysis suite (ChemInnovation, CA). For Gs agonist mode assays, percentage activity was calculated using the following equation:

LCK = molecular target: T2, LCK (Homo sapiens, UniProt P06239); experiment: Binding (KINOMEscan) LCK Inhibitor; settings: for IC50: read-out: RC50, result type IC50; for Emax: read-out: Max response
T2 construct: purchased Eurofins DiscoverX Corporation 87-1003DR; host or cells: E. coli BL21-derived host (T7 phage) or HEK-293
T2 sequence (P06239 whole entry): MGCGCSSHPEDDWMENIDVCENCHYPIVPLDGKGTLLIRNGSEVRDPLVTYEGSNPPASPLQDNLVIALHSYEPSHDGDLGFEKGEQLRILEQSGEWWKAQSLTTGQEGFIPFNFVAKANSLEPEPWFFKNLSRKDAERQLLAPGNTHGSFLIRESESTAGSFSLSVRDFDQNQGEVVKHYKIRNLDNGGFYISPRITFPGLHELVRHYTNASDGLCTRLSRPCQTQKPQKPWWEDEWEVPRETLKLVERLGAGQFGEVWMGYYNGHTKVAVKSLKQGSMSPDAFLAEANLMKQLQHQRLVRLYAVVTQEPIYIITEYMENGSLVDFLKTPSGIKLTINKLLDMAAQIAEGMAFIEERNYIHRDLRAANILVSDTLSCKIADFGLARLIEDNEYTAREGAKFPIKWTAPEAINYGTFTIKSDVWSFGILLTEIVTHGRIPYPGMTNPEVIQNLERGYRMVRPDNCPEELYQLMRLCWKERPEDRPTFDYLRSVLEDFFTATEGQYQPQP
Protocol: For most assays, kinase-tagged T7 phage strains were grown in parallel in 24-well blocks in an E. coli host derived from the BL21 strain. E. coli were grown to log-phase and infected with T7 phage from a frozen stock (multiplicity of infection=0.4) and incubated with shaking at 32° C. until lysis (90-150 min). The lysates were centrifuged (6,000×g) and filtered (0.2 μm) to remove cell debris. The remaining kinases were produced in HEK-293 cells and subsequently tagged with DNA for qPCR detection. Streptavidin-coated magnetic beads were treated with biotinylated small molecule ligands for 30 min at RT to generate affinity resins for kinase assays. The liganded beads were blocked with excess biotin and washed with blocking buffer (SeaBlock (Pierce), 1% BSA, 0.05% Tween 20, 1 mM DTT) to remove unbound ligand and to reduce non-specific phage binding. […] All reactions were performed in polypropylene 384-well plates in a final volume of 0.02 mL. […] The beads were then re-suspended in elution buffer (1×PBS, 0.05% Tween 20, 0.5 μM non-biotinylated affinity ligand) and incubated at RT with shaking for 30 min. The kinase concentration in the eluates was measured by qPCR.
The kinase concentration in the eluates was measured by qPCR. qPCR reactions were assembled by adding 2.5 μL of kinase eluate to 7.5 μL of qPCR master mix containing 0.15 μM amplicon primers and 0.15 μM amplicon probe. The qPCR protocol consisted of a 10 min hot start at 95° C., followed by 35 cycles of 95° C. for 15 sec, 60° C. for 1 min.
Binding constants (Kds) were calculated with a standard dose-response curve using the Hill equation: […]

Compound | potential off-targets (number) (47 common off-targets) | IC50 (CHRM3) [µM] | Emax (CHRM3) [%] | mean seizure duration (male NMRI mice; 30 mg/kg i.p.) [s] | mean seizure duration (male NMRI mice; 100 mg/kg i.p.) [s] | mean seizure duration (male NMRI mice; 200 mg/kg i.p.) [s] | mean seizure duration (male NMRI mice; 300 mg/kg i.p.) [s] | mean seizure duration (male NMRI mice; 600 mg/kg i.p.) [s] | dose-response relationship (in words) (male NMRI mice) | fraction unbound at 4 h, 10 μM (Plasma protein binding) | Cmax (in vivo; brain) [ng/g] | Cmax (in vivo; plasma) [µM] | IC50 (NAV1.5) [µM] | Emax at 30 min (NAV1.5) [%] | IC50 (HTR2B) [µM] | Emax (HTR2B) [%] | IC50 (DAT) [µM] | Emax (DAT) [%] | IC50 (CNR1) [µM] | Emax (CNR1) [%] | further results
CC(C)(C)c1ccc(C#CC(O)c2ccccc2)cc1 (racemic) [Compound 3.3, rac-3-(4-(tert-butyl)phenyl)-1-phenylprop-2-yn-1-ol] | 4 | > 10 | 0 | 9.5 | 7.7 | 1.1 | 0 | 1.00 | displayed a dose-response relationship | 0.002 | 96000 | 62 | > 10 | 59.9 | > 10 | 0 | > 10 | 0 | > 10 | 17.5 | IC50 (47 common off-targets; read-out: IC50 values at the potential off-targets, CHRM2, DRD2S, HTR1B, nAChR a4/b2): 4 to 8 µM; IC50 (HRH1): > 10 µM; Emax (HRH1): 0%; IC50 (LCK; Binding LCK Inhibitor): > 10 µM; Emax (LCK): 0%
Clc1cccc(C#Cc2n[nH]c3ncccc23)c1 [Compound 10.1, 3-((3-chlorophenyl)ethynyl)-1H-pyrazolo[3,4-b]pyridine] | none | > 10 | 0 | 5.5 | 6.0 | 8.5 | 3.0 | 0.8 | displayed a dose-response relationship | 0.0035 | 31000 | 27 | > 10 | 21.5 | > 10 | 8.8 | > 10 | 33.1 | > 10 | 0 | mean seizure duration (male NMRI mice; 10 mg/kg i.p.): 6.2 s; mean seizure duration (male NMRI mice; 400 mg/kg i.p.): 1.2 s; Emax (HRH1; Calcium Flux HRH1 Antagonist): 1%; IC50 (HRH1; Calcium Flux HRH1 Antagonist, read-out: RC50, result type IC50): > 10 µM; Emax (LCK; Binding LCK Inhibitor): 0%; IC50 (LCK; Binding LCK Inhibitor): > 10 µM
